Measurements from US8519124B2, “Chemokine receptor antagonists and use thereof” (Ono Pharmaceutical Co., Ltd., priority 2005, dated 2013).

Experiments:
[1] = Measurement of maximum plasma level (Cmax) and bioavailability (BA); format: in vivo; details: male, Crl:CD(SD), po; rat plasma; orally administered solution 10 mg/kg, fasting
Procedure: Measurement of Maximum Plasma Level (CMax) and Bioavailability (BA)
A test compound is weighed, dissolved in Solutol (trade name; manufactured by BASF-TAKEDA Vitamins Ltd.)/propylene glycol=7/3 which is heated to 60° C. and adjusted to 20 mg/mL; thereafter, the test compound is diluted by 10 times with distilled water for injection, and further diluted by 2 times with saline solution, by which intravenously administered solution is eventually made. The test compound is weighed, dissolved in Solutol (trade name; manufactured by BASF-TAKEDA Vitamins Ltd.)/propylene glycol=7/3 which is heated to 60° C., and adjusted to 20 mg/mL; thereafter, the test compound is diluted by 10 times with distilled water for injection, by which orally administered solution is eventually made. Intravenous administration is performed by rapid single administration (n=3) of intravenously administered solution (1 mg/kg) from the tail vein of Crl:CD(SD) Rat (male, manufactured by CHARLES RIVER LABORATORIES JAPAN, INC). Oral administration is performed by forced administration (n=3) of orally administered solution (10 mg/kg) into the stomach of Crl:CD(SD) Rat (male, manufactured by CHARLES RIVER LABORATORIES JAPAN, INC.) using a sonde. The administration is conducted under fasting conditions; water is freely ingested. A 0.35 mL blood sample is taken from cervical vein by using Heparinized Syringe at 15 minutes, 30 minutes, 1 hour, 2 hours, 4 hours, 6 hours, 8 hours, and 24 hours after administration. The obtained blood is stored in ice, and after centrifugation at 12,000 rpm for 5 minutes, blood plasma is fractionated. The blood plasma is preserved at a temperature of −80° C. The sample of blood plasma preserved at a temperature of −80° C. is dissolved; inner standard solution (100 μL) and acetonitrile (2 mL) are added to the blood plasma sample 100 μL and stirred; and the sample is centrifuged at 2,500 rpm for 10 minutes. After the supernatant is evaporated to dryness by means of a centrifugal concentrator, 67% dimethyl sulfoxide solution (150 μL) is added to the residue and dissolves them again; and 20 μL of the solution is analyzed by means of LC/MS/MS.
The analysis by means of LC/MS/MS should be performed, for example, under the following conditions:
Measurement device: Waters 2795 (manufactured by Waters Corporation)
Analytical column: Unison UK-C18, 3.0 μm particle size, 2.0 mm×30 mm (manufactured by Imtakt Corporation)
Analytical column temperature: Room temperature
Moving bed: 5 mM IPC-PFAA-7 solution/acetonitrile (9/1→1/9)
Measurement device: Quatro micro API (manufactured by Micromass Communications Inc.)
Method for ionization: ES+
Capillary electric potential: 3.30 kV
Source temperature: 120° C.
Desolvation temperature: 350° C.
The monitor ion which was suitable for each sample was selected.
The concentration transition in the rat blood plasma of the test compound is analyzed by means of non-compartment analysis method by using WinNonlin 4.0.1 (manufactured by Pharsight Corporation) to calculate the maximum blood concentration Cmax and the area under the blood concentration curve AUC.
BA is calculated by means of the following formula: BA(%)={(AUCp.o./Dosep.o.)/(AUCi.v./Dosei.v.)}×100
AUCp.o.: AUC in oral administration
Dosep.o.: Amount of the drug orally administered
AUCi.v.: AUC in intravenous administration
Dosei.v.: Amount of the drug intravenously administered

[2] = test system: CHL/IU (cell line derived from a Chinese hamster lung); assay: Phospholipidosis detecting system using fluorescent labeling phospholipid analog (NBD-PE); format: cell-based; details: compound dose: 50 μM; for The rate of increase of phopholipid accumulation (%): CHL/IU cells, about 24 hours, relative to NBD-PE control
Procedure: Investigation with a Phospholipidosis Detecting System Using Fluorescent Labeling Phospholipidosis Analog (i) Phospholipid Accumulation Measurement 100 μL/well as required (1 dose 2 wells) of cell suspension of CHL/IU (cell line derived from a Chinese hamster lung) adjusted by MEM (7×10^4 cells/mL) adjusted by MEM (minimum essential medium) culture medium was added to a 96-well plate (96-well clear-bottom plate), and cultured for about 24 hours. After culture, the supernatant of the 96-well plate was removed, and the 100 μL/well compounds of each concentration dissolved and suspended in a minimum essential medium (MEM) including 25 μmol/L nitrobenzoxadiazole dipalmitoyl phosphatidylethanolamine (NBD-PE) (hereinafter abbreviated as a NPD-PE medium) were added and treated for about 24 hours. The treatment concentrations of each compound were set to be 6.25, 12.5, 25, 50 and 100 μmol/L. The positive control substance was set to be amiodarone hydrochloride, and the treatment concentrations were set to be 1.25, 2.5, 5, 10 and 20 μmol/L. In addition, 5 untreated controls (only MEM) and 5 NBD-PE controls (made by means of adding a 1/100 amount of DMSO to the NBD-PE culture medium) were set per compound, and cultured in the same manner. After finishing the culture, the cultures were washed twice with Phosphate buffered saline (hereinafter abbreviated as PBS) (−) 100 μL/well, and the MEM (100 μL) was added to all of the treatment wells including 2 empty wells for WST-1 background controls and cultured for about a half hour. The fluorescence intensities of each well were measured by using a microplate reader (manufactured by Molecular Devices Inc., SPECTRA max M2; the excitation wavelength 485 nm/the fluorescence wavelength 535 nm). (ii) Analysis Using the average values of each dose×2 wells, a phospholipid increase rate (%) to the NBD-PE control was calculated by using the following calculating formula: Phospholipid increase rate (%)=100×{(test article fluorescence intensity−untreated control fluorescence intensity)/(NBD-PE control fluorescence intensity−untreated control fluorescence intensity (iii) Cytotoxicity Assay The 96-well plate measured in the phospholipid accumulation measurement was measured by means of Plate Reader (manufactured by Molecular Devices Inc., SPECTRA max M2) with the main wavelength of 450 nm and the correct wavelength of 690 nm to calculate a Pre value. An amount of 5 μL/well of Premix WS T-1 was added to each of the 96 hole plates by which Pre measurement was conducted. After culture for 2 to 4 hours, the 96-well plate was measured as well as the Pre measurement to calculate an Aft value. Then, the background control value was subtracted from the each measured value. A value which was calculated by subtracting the Pre value from the Aft value was used, then the cell growth rate (%) was calculated by using the following calculating formula: Cell growth rate (%)=100×{(test article OD)/(NBD-PE control OD)} (iv) Determination A test dose that indicated value of equal to or more than 25% of the maximum phospholipid accumulation increase rate of amiodarone which was the positive control was determined as positive. In addition, the dose whose cell growth rate was equal to or less than 50% in the cytotoxicity assay was not used for determination of existence or nonexistence of a phospholipidosis inductive effect.

CC(C)CN1CCC2(CCN(Cc3ccc(C(=O)N(Cc4ncc[nH]4)Cc4ncc[nH]4)cc3)CC2)C1 [Example 8 (113), N,N-bis(1H-imidazol-2-ylmethyl)-4-[(2-isobutyl-2,8-diazaspiro[4.5]dec-8-yl)methyl]benzamide]
Cmax [1]: 80 ng/mL
Judgement (phospholipidosis inductive effect) [2]: negative
The rate of increase of phopholipid accumulation (%) [2]: 10%

CC(C)(C)CN1CCC2(CC1)CCN(C(=O)Cc1ccc(CN(Cc3ncc[nH]3)Cc3ncc[nH]3)cc1)C2 [Example 40 (68), 1-(4-{2-[8-(2,2-dimethylpropyl)-2,8-diazaspiro[4.5]dec-2-yl]-2-oxoethyl}phenyl)-N,N-bis(1H-imidazol-2-ylmethyl)methanamine]
Cmax [1]: 175 ng/mL
Judgement (phospholipidosis inductive effect) [2]: negative
The rate of increase of phopholipid accumulation (%) [2]: 18%

CCC(CC)N1CCC2(CCN(C(=O)c3ccc(CN(Cc4ncc[nH]4)Cc4nccn4C)cc3)C2)CC1 [Example 40 (72), 1-(4-{[8-(1-ethylpropyl)-2,8-diazaspiro[4.5]dec-2-yl]carbonyl}phenyl)-N-(1H-imidazol-2-ylmethyl)-N-[(1-methyl-1H-imidazol-2-yl)methyl]methanamine]
Cmax [1]: 157 ng/mL
Judgement (phospholipidosis inductive effect) [2]: negative
The rate of increase of phopholipid accumulation (%) [2]: 16%

O=C(CC(=O)N1CCC2(CCN(C3CCCCC3)CC2)C1)N1CCC(N(Cc2ncc[nH]2)Cc2ncc[nH]2)CC1 [Example 65 (4), 1-[3-(8-cyclohexyl-2,8-diazaspiro[4.5]dec-2-yl)-3-oxopropanoyl]-N,N-bis(1H-imidazol-2-ylmethyl)-4-piperidinamine]
Cmax [1]: 420 ng/mL
Judgement (phospholipidosis inductive effect) [2]: negative
The rate of increase of phopholipid accumulation (%) [2]: 12%
